Test system: Bcl-2
Experiment: Bcl-2 inhibition assay
Type: cell-based, human
Details: PC-3 cell line; for down-regulation of anti-apoptotic Bcl-2 protein levels: compared to staurosporine
Description: For more details, see Supplementary Materials. […]
4.2.6. Bcl-2 inhibition assay
Mix all reagents thoroughly without foaming before use. Wash the microwells twice with approximately 300 μL Wash Buffer per well with thorough aspiration of microwell contents between washes. Take caution not to scratch the surface of the microwells.
After the last wash, empty the wells and tap microwell strips on absorbent pad or paper towel to remove excess Wash Buffer. Use the microwell strips immediately after washing or place upside down on a wet absorbent paper for not longer than 15 minutes.
Add 100 μL of Sample Diluent in duplicate to all standard wells and to the blank wells. Prepare standard (1:2 dilution) in duplicate ranging from 32 ng/mL to 0.5 ng/mL. Add 100 μL of Sample Diluent, in duplicate, to the blank wells.
Add 80 μL of Sample Diluent, in duplicate, to the sample wells. Add 20 μL of each Sample, in duplicate, to the designated wells. Add 50 μL of diluted biotin-conjugate to all wells, including the blank wells. Cover with a plate cover and incubate at room temperature, on a microplate shaker at 100 rpm if available, for 2 hours. Remove plate cover and empty the wells. Wash microwell strips 3 times as described in step 2. Add 100 μL of diluted Streptavidin-HRP to all wells, including the blank wells. Cover with a plate cover and incubate at room temperature, on a microplate shaker at 100 rpm if available, for 1 hour. Remove plate cover and empty the wells. Wash microwell strips […]
3 times as described in step 2. Proceed to the next step. Pipette 100 μl of mixed TMB Substrate Solution to all wells, including the blanks. Incubate the microwell strips at room temperature (18° to 25°C) for about 15 minutes, if available on a rotator set at 100 rpm. Avoid direct exposure to intense light. The point, at which the substrate reaction is stopped, is often determined by the ELISA reader. Many ELISA readers record absorbance only up to 2.0 O.D. Therefore, the color development within individual microwells must be watched by the person running the assay and the substrate reaction stopped before positive wells are no longer properly detectable. Stop the enzyme reaction by quickly pipetting 100 μL of Stop Solution into each well, including the blank wells. It is important that the Stop Solution is spread quickly and uniformly throughout the microwells to completely inactivate the enzyme. Results must be read immediately after the Stop Solution is added or within one hour if the microwell strips are stored at 2 - 8°C in the dark. Read absorbance of each microwell on a spectrophotometer using 450 nm as the primary wavelength.
4.3. Statistical analysis
Computerized Prism 5 program was used to statistically analyzed data using one-way ANOVA test followed by Tukey’s as post ANOVA for multiple comparison at P ≤.05.
Data were presented as mean ± SEM.

SMILES	Bcl-2 Conc [ng/mL]	down-regulation of anti-apoptotic Bcl-2 protein levels	Bcl-2 Fold Reduction (vs control)
O=C(NN=Cc1ccc([N+](=O)[O-])cc1)c1ccc2[nH]c(-c3ccc(Cl)cc3)nc2c1 [Compound 4c, N′-(4-Nitrobenzylidene)-2-(4-chlorophenyl)-1H-benzimidazole-5-carbohydrazide]	0.80	equipotent down-regulation	
O=C(NN=Cc1ccc(Cl)cc1)c1ccc2[nH]c(-c3ccc(Cl)cc3)nc2c1 [Compound 4e, N′-(4-Chlorobenzylidene)-2-(4-chlorophenyl)-1H-benzimidazole-5-carbohydrazide]	0.75	equipotent down-regulation	4
